In ChEMBL document CHEMBL1201862, “PubChem BioAssay data set” (2004):
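Five concentrations, 48 hours, 96-well plates. GI50 is the concentration that inhibits growth by half.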 Active and inactive are the calls of the source. Cut-off read from the data, not from the text of the source: active = GI50 up to about 1.1 µM and inactive = higher.

Assays:
Assay in all cases: NCI-60 cell line screen, 48 h
HOP-92 = tested on: HOP-92
UACC-62 = tested on: UACC-62
HL-60 = tested on: HL-60
U-251 = tested on: U-251
SNB-75 = tested on: SNB-75
A549 = tested on: A549
SK-MEL-28 = tested on: SK-MEL-28
KM12 = tested on: KM12
SW-620 = tested on: SW-620
SK-MEL-2 = tested on: SK-MEL-2
LOX IMVI = tested on: LOX IMVI
KM-20L2 = tested on: KM-20L2
RPMI-8226 = tested on: RPMI-8226
ACHN = tested on: ACHN
RXF 393 = tested on: RXF 393
NCI-H226 = tested on: NCI-H226

Measured: GI50

NS(=O)(=O)c1ccc(NC2=CC(=O)C(=O)c3ccccc32)cc1
inactive: HOP-92 > 100 µM | UACC-62 > 100 µM | HL-60 > 100 µM | U-251 > 100 µM | SNB-75 > 100 µM | A549 > 100 µM | SK-MEL-28 > 100 µM | KM12 > 100 µM | SW-620 > 100 µM | SK-MEL-2 > 100 µM | LOX IMVI > 100 µM | KM-20L2 > 100 µM | RPMI-8226 > 100 µM | ACHN > 100 µM | RXF 393 > 100 µM | NCI-H226 > 100 µM

O=[N+]([O-])c1ccc(/C=N/C23CC4CC(CC(C4)C2)C3)cc1
inactive: HOP-92 > 100 µM | UACC-62 > 100 µM | HL-60 71.3 µM | U-251 > 100 µM | SNB-75 > 100 µM | SK-MEL-28 > 100 µM | KM12 > 100 µM | SK-MEL-2 > 100 µM | LOX IMVI 85.7 µM | KM-20L2 > 100 µM | RPMI-8226 > 100 µM | ACHN > 100 µM | RXF 393 > 100 µM | NCI-H226 > 100 µM

CN(C)/C=C/C(=O)c1cccc(C(=O)/C=C/N(C)C)n1
inactive: HOP-92 > 100 µM | UACC-62 > 100 µM | HL-60 > 100 µM | U-251 > 100 µM | SNB-75 > 100 µM | A549 > 100 µM | SK-MEL-28 > 100 µM | KM12 > 100 µM | SW-620 > 100 µM | SK-MEL-2 > 100 µM | LOX IMVI > 100 µM | KM-20L2 > 100 µM | RPMI-8226 > 100 µM | ACHN > 100 µM | RXF 393 > 100 µM | NCI-H226 > 100 µM

CC1=NN(C(=O)Cc2ccccc2)C(=O)/C1=C\c1ccc([N+](=O)[O-])cc1
inactive: HOP-92 1.15 µM | UACC-62 > 100 µM | U-251 > 100 µM | A549 > 100 µM | SK-MEL-28 > 100 µM | KM12 > 100 µM | SW-620 > 100 µM | SK-MEL-2 > 100 µM | LOX IMVI > 100 µM | KM-20L2 > 100 µM | RPMI-8226 > 100 µM | ACHN > 100 µM | RXF 393 > 100 µM | NCI-H226 > 100 µM

N#CCN1C(=O)c2cc([N+](=O)[O-])cc3cc([N+](=O)[O-])cc(c23)C1=O
inactive: HOP-92 17.1 µM | UACC-62 12.4 µM | HL-60 3.21 µM | U-251 17.9 µM | SNB-75 26.1 µM | A549 18.6 µM | SK-MEL-28 19 µM | KM12 11.2 µM | SW-620 7.53 µM | SK-MEL-2 3.94 µM | LOX IMVI 6.41 µM | KM-20L2 12.9 µM | RPMI-8226 5.51 µM | ACHN 13.2 µM | RXF 393 8.28 µM | NCI-H226 21.6 µM

O=c1c2ccccc2nc(-c2cccc(Cl)c2)n1NCC1(O)OCC(O)C(O)C1O (stereo not drawn)
inactive: UACC-62 > 100 µM | HL-60 30.7 µM | U-251 > 100 µM | SNB-75 > 10 µM | A549 > 100 µM | SK-MEL-28 > 100 µM | KM12 > 100 µM | SW-620 > 100 µM | SK-MEL-2 > 100 µM | LOX IMVI > 100 µM | KM-20L2 > 100 µM | RPMI-8226 41.1 µM | ACHN > 100 µM | RXF 393 51.9 µM | NCI-H226 > 100 µM

CCCOP(=S)(N1CC1)N1CC1
inactive: HOP-92 > 100 µM | UACC-62 > 100 µM | HL-60 > 100 µM | U-251 > 100 µM | SNB-75 48.3 µM | A549 > 100 µM | SK-MEL-28 > 100 µM | KM12 > 100 µM | SW-620 > 100 µM | SK-MEL-2 > 100 µM | LOX IMVI > 100 µM | KM-20L2 > 100 µM | RPMI-8226 > 100 µM | ACHN > 100 µM | RXF 393 > 100 µM | NCI-H226 75.9 µM

CCOC(=O)c1[nH]c(COC(C)=O)c(CCCOC(C)=O)c1CCCOC(C)=O
inactive: HOP-92 > 100 µM | HL-60 > 100 µM | U-251 > 100 µM | A549 > 100 µM | SK-MEL-28 > 100 µM | KM12 > 100 µM | SW-620 > 100 µM | SK-MEL-2 > 100 µM | LOX IMVI > 100 µM | KM-20L2 > 100 µM | ACHN > 100 µM | RXF 393 > 100 µM | NCI-H226 > 100 µM

CC1=CC=C2C(C)(C)CC[C@@H]3OC(=O)[C@H]1[C@]23C
inactive: HOP-92 > 100 µM | UACC-62 > 100 µM | HL-60 > 100 µM | U-251 > 100 µM | SNB-75 > 100 µM | A549 > 100 µM | SK-MEL-28 > 100 µM | KM12 > 100 µM | SW-620 > 100 µM | SK-MEL-2 15.5 µM | LOX IMVI > 100 µM | KM-20L2 > 100 µM | ACHN > 100 µM | RXF 393 > 100 µM | NCI-H226 > 100 µM

O=C1C2C=CC(n3[nH]c(=O)n(Cc4ccccc4)c3=O)CC2C(=O)N1c1cccc(Cl)c1 (stereo not drawn)
inactive: HOP-92 > 100 µM | UACC-62 > 100 µM | HL-60 > 100 µM | U-251 > 100 µM | SNB-75 > 100 µM | A549 > 100 µM | SK-MEL-28 > 100 µM | KM12 > 100 µM | SW-620 > 100 µM | SK-MEL-2 > 100 µM | LOX IMVI > 100 µM | KM-20L2 > 100 µM | ACHN > 100 µM | RXF 393 > 100 µM | NCI-H226 > 100 µM

OCc1cc2c(cn1)[nH]c1ccc(NCc3ccccc3)cc12
inactive: HOP-92 15.9 µM | UACC-62 17.2 µM | HL-60 12.1 µM | U-251 38.9 µM | SNB-75 25.5 µM | A549 28.1 µM | SK-MEL-28 16.1 µM | KM12 18.6 µM | SW-620 27.4 µM | SK-MEL-2 40.2 µM | LOX IMVI 28.4 µM | KM-20L2 14.4 µM | RPMI-8226 11 µM | ACHN 20 µM | RXF 393 20.3 µM | NCI-H226 19.1 µM

COc1ccc(Cc2c3cc(O)c([O-])cc3cc[n+]2C)cc1
inactive: HOP-92 47.9 µM | UACC-62 23.9 µM | HL-60 16.3 µM | U-251 12.7 µM | SNB-75 48.2 µM | A549 30.8 µM | SK-MEL-28 22.3 µM | KM12 40.2 µM | SW-620 36.1 µM | SK-MEL-2 65.9 µM | LOX IMVI 13.3 µM | KM-20L2 51.1 µM | RPMI-8226 28.4 µM | ACHN 6.93 µM | RXF 393 11.8 µM | NCI-H226 25.7 µM

N#CC(C#N)=CSc1ccccc1
inactive: HOP-92 50.2 µM | UACC-62 24.2 µM | HL-60 11.9 µM | U-251 16.5 µM | SNB-75 24.1 µM | A549 19.6 µM | SK-MEL-28 23.8 µM | KM12 19.7 µM | SW-620 32.4 µM | SK-MEL-2 18.7 µM | LOX IMVI 12.6 µM | KM-20L2 32.7 µM | RPMI-8226 48 µM | ACHN 30.5 µM | RXF 393 17.2 µM | NCI-H226 19.5 µM

N#CC(C(=O)Nc1ccccc1)C1=C(Cl)C(=O)c2ccccc2C1=O (stereo not drawn)
inactive: HOP-92 14.3 µM | UACC-62 16.8 µM | HL-60 4.23 µM | U-251 27.2 µM | SNB-75 > 10 µM | A549 19.6 µM | SK-MEL-28 17.1 µM | KM12 21.5 µM | SW-620 20.6 µM | SK-MEL-2 16.3 µM | LOX IMVI 15.7 µM | KM-20L2 23 µM | RXF 393 17.6 µM | NCI-H226 17 µM

COc1ccc(/C=C/c2nnc(S)[nH]2)cc1OC
inactive: HOP-92 > 100 µM | UACC-62 > 100 µM | HL-60 > 100 µM | U-251 > 100 µM | SNB-75 > 100 µM | A549 > 100 µM | SK-MEL-28 > 100 µM | SW-620 > 100 µM | SK-MEL-2 > 100 µM | LOX IMVI > 100 µM | KM-20L2 > 100 µM | RPMI-8226 > 100 µM | ACHN > 100 µM | RXF 393 > 100 µM | NCI-H226 > 100 µM

O=C1C(Cl)C(c2cc(Br)cc(Br)c2O)N1n1cnc2ccccc2c1=O (stereo not drawn)
inactive: UACC-62 19.2 µM | HL-60 16.8 µM | U-251 6.35 µM | SNB-75 25.3 µM | A549 65.9 µM | SK-MEL-28 19.6 µM | KM12 25.1 µM | SW-620 35.8 µM | SK-MEL-2 21.1 µM | LOX IMVI 14.1 µM | KM-20L2 32.5 µM | RPMI-8226 12.6 µM | ACHN 28.2 µM | RXF 393 21 µM | NCI-H226 21.9 µM

Nc1nc2c(ncn2CC(CO)CC(c2ccccc2)P(=O)(O)O)c(=O)[nH]1 (stereo not drawn)
inactive: HOP-92 > 100 µM | UACC-62 > 100 µM | HL-60 > 100 µM | U-251 > 100 µM | A549 > 100 µM | SK-MEL-28 > 100 µM | KM12 > 100 µM | SW-620 > 100 µM | SK-MEL-2 > 100 µM | LOX IMVI > 100 µM | KM-20L2 > 100 µM | RPMI-8226 > 100 µM | ACHN > 100 µM | RXF 393 > 100 µM | NCI-H226 > 100 µM

CC1=CC(=O)CC2(C)CC[C@@H]3C[C@]12OC3(C)C (stereo partly drawn)
inactive: HOP-92 > 100 µM | UACC-62 > 100 µM | HL-60 > 100 µM | U-251 > 100 µM | SNB-75 > 100 µM | A549 > 100 µM | SK-MEL-28 > 100 µM | KM12 > 100 µM | SW-620 > 100 µM | SK-MEL-2 > 100 µM | LOX IMVI > 100 µM | KM-20L2 > 100 µM | RPMI-8226 > 100 µM | ACHN > 100 µM | RXF 393 > 100 µM | NCI-H226 > 100 µM
